Results: patent US6673823B2, “Use of peroxisome proliferator activated receptor (PPAR)-γ ligands as a treatment for pituitary tumors and associated conditions, such as Cushing's syndrome” (Cedars-Sinai Medical Center, priority 2002, dated 2004)
One block for each compound: values may come before it.

What was measured:
[1] = tested on: mouse corticotroph tumor cells (AtT20); test: Western blot analysis of TZD-treated corticotroph cells; type: cell-based; settings: 10^−5 M, vs. vehicle
Description: Western Blot Analysis: AtT20 cells were seeded at about 1×10^6 per well and human pituitary cell cultures were seeded at about 0.5×10^6 per well in 6-well plates for 24 hours prior to treatment with TZD's. Cells were then washed with PBS, and protein samples prepared in RIPA buffer and resolved under reducing conditions on 12% SDS-polyacrylamide gels using standard methods (Elstner, E., et al., Ligands for peroxisome proliferator-activated receptor-γ and retinoic acid receptor inhibit growth and induce apoptosis of human breast cancer cells in vitro and in BNX mice. Proc. Natl. Acad. Sci. USA 95:8806-8811 [1998]). Resolved proteins were transferred to nitrocellulose membranes and probed with antibodies to Bc1-2 (1:500), Bax (1:1000), TRAIL (1:500), p53 (1:1000) (all from Santa-Cruz, Cailf.), p-Rb (Ser 795) (1:1000), cleaved and uncleaved caspase-3 (1:500) (Cell Signalling, Beverly, Mass.) overnight at 4° C. After washing, membranes were incubated with appropriate IgG- horseradish peroxidase conjugates, and immunoreactive protein bands were visualized with ECL (Amersham, Buckinghamshire, UK). Total protein was normalized by reprobing with anti-actin antibody (1:5000, Sigma, St. Louis, Mo.) or Ponceau S staining, and protein bands quantified by densitometry (Video Densitometer model 620, Bio-Rad).

human patients = settings: cited from earlier work
[2] = tested on: AtT20 mouse pituitary (ACTH-secreting) tumor cells; test: Cell cycle distribution (FACS, propidium iodide); type: cell-based; settings: 10^−6 to 10^−4 M, up to 48 h serum-free or up to 96 h serum-replete
Description: (§1) Cell Culture. […] Medium was replenished with ligands every 2 days, and cells maintained in serum-containing medium or in serum-free medium for up to 96 hours.
(§2) Cell Cycle Distribution. Following treatments, AtT20 cells were trypsinized, centrifuged (1500 rpm×2 min), washed with PBS, and treated with 20 µg/mL Rnase A (Calbiochem, La Jolla, Calif.). DNA was stained with 100 μg/mL propidium iodide (PI) for 30 min at 40° C. and protected from light, prior to analysis with a FACScan (Becton Dickinson, Franklin Lakes, N.J.). DNA histogram analysis was performed using the modFitLT software.
To determine the functional significance of pituitary corticotroph PPAR-γ expression, the effects of PPAR-γ ligands were tested on ACTH-secreting pituitary tumor cells in vitro. Troglitazone or rosiglitazone-treatment (10^−6 to 10^−4 M) for up to 48 hours, when cells were maintained in serum-free conditions, or up to 96 hours, when cells were maintained in serum-replete conditions, induced G0-G1 cell-cycle arrest (control, G1 75±4% vs. ros, G1 85±2%, p=0.009), and led to decreased S-phase cells (control, 18±0.05% vs. ros, 12±0.5%, p=0.001) (FIG. 3A).

[3] = tested on: mouse αT3 gonadotroph cells; test: Cell cycle distribution (FACS, propidium iodide); type: cell-based
Description: as §1
as §2, with “GH3, αT3, or human pituitary tumor” for “AtT20”, “Cailf.).” for “Calif.).”, “μg/ mL” for “μg/mL”, “4°” for “40°”
(§3) To determine the functional significance of pituitary tumor PPAR-γ expression, the effects of PPAR-γ ligands was tested on pituitary tumor cells in vitro. Troglitazone or rosiglitazone-treatment ([…]) of GH3 (PRL- and GH-secreting), and αT3 (gonadotroph-secreting) and human pituitary tumor cells for up to 48 hours, in serum-free conditions, or up to 96 hours, for cells maintained in serum-repleted conditions, induced G0-G1 cell-cycle arrest (GH3: control, G1 75±4% vs. ros, G1 85±2%, p=0.009; αT3: control, G1 67±0.5% vs. ros, G1 75±0.5%, p=0.01), and led to decreased number of cells in S-phase (GH3: control, 18±0.05% vs. ros, 12±0.5%, p=0.001; αT3: control, 31±0.5% vs. ros, 16±2.5%, p=0.03) (FIG. 11A).

[4] = tested on: rat GH3 (PRL- and GH-secreting) cells; test: Cell cycle distribution (FACS, propidium iodide); type: cell-based
Description: as §1
as §2, with “GH3, αT3, or human pituitary tumor” for “AtT20”, “Cailf.).” for “Calif.).”, “μg/ mL” for “μg/mL”, “4°” for “40°”
as §3

AtT20 cells = test: TUNEL apoptosis analysis; type: cell-based, mouse
Description: Terminal Deoxynucleotidyltransferase-mediated dUTP Nick End Labeling (TUNEL). Apoptosis-induced nuclear DNA fragmentation was detected using the in situ cell death detection kit, TMR red (Roche Diagnostics, Indianapolis, IN) following the manufacturer's protocol. Briefly, 48 hours following treatment with thiazolidinedione compounds (TZDs), AtT20 cells were fixed in 4% paraformaldehyde, permeabilized with 0.1% sodium citrate/ 0.6% Tween 20 (pH 7.4) for 2 min at 4° C. prior to incubation in Tunel reaction mix (TMR red/dNTP mix, TdT, and labeling buffer) for 60 min at 37° C. Slides were washed (3×5 min) in PBS/ Triton/ BSA (0.3%) and visualized on an Olympus BH2 immunofluorescent microscope.

[5] = tested on: Mouse corticotroph AtT20 pituitary tumor cells; test: Prevention of subcutaneous corticotroph tumor development in athymic nude mice; type: in vivo; settings: oral 150 mg/kg/day, 4 weeks
[6] = tested on: Mouse corticotroph pituitary tumor cells (AtT20); test: Growth of established corticotroph tumors in athymic nude mice; type: in vivo; settings: oral 150 mg/kg/day, 3 weeks
Source text: The effects of TZD treatment were therefore tested on growth of already established pituitary corticotroph tumors, and steroid hormone levels in vivo. Mouse corticotroph pituitary tumor cells (AtT20) were innoculated subcutaneously in athymic nude mice, and tumors allowed to develop. […] Baseline serum ACTH and corticosterone levels, and tumor volumes were not different in the groups subsequently randomized as control or treated groups (data not shown, p=ns). […] All animals were euthanized at 6 weeks. The phenotypic appearance of the mice was strikingly different, and vehicle-treated mice were wasted, developed skin atrophy and appeared pigmented, with features of hypercorticolism (FIG. 8B).

[7] = tested on: normal athymic Nu/Nu mice; settings: 150 mg/kg for 6 weeks
Source text: A person first presented 2 years ago with bruising, skin striae, 70 lb weight gain and hypertension. Evaluation confirmed the diagnosis of Cushing's syndrome due to an ACTH-secreting pituitary tumor, which was resected by transsphenoidal surgery. The patient presented again one year later with weight gain, labile hypertension, diabetes and confirmed recurrence of Cushing's syndrome.

[8] = tested on: patient with Cushing's syndrome; test: 24 hour urinary free cortisol excretion in a patient with Cushing's syndrome; type: in vivo, human; settings: 8 mg daily, one patient, vs. baseline, p<0.02
[9] = tested on: rat GH3, murine αT3, and human pituitary tumor cells; test: Annexin-FITC, FACS and TUNEL apoptosis analysis; type: cell-based; settings: control 33±3, p<0.0002
Description: Apoptosis Assay: Annexin FITC by flow Cytometry. GH3, αT3 and human pituitary tumor cells were treated, washed in PBS, trypsinized, centrifuged, and washed prior to incubation with a FITC-labeled monoclonal Annexin antibody and PI for 30 min at room temperature according to manufacturer's instructions (Pharmingen, San Diego, Cailf.). About 1×10^6 cells were prepared and analyzed by flow cytometry, labeled nuclei (PI) were gated on light scatter to remove debris, and the percentage of Annexin-FITC positive cells determined. Annexin-FITC positive cells were also visualized with an Olympus BH2 immunofluorescent microscope.
Terminal Deoxynucleotidyltransferase-mediated dUTP Nick End Labeling (TUNEL). Apoptosis-induced nuclear DNA fragmentation was detected using the in situ cell death detection kit, TMR red (Roche Diagnostics, Indianapolis, Ind.) following the manufacturer's protocol. Briefly, 48 hours following TZD treatment, GH3, αT3 and human pituitary tumor cells were fixed in 4% weight per volume paraformaldehyde, permeabilized with 0.1% sodium citrate/ 0.6% Tween 20 (pH 7.4) for 2 min at 4° C. prior to incubation in Tunel reaction mix (TMR red/dNTP mix, TdT, and labeling buffer) for 60 min at 37° C. Slides were washed (3×5 min) in PBS/Triton/BSA (0.3%) and visualized on a an Olympus BH2 immunofluorescent microscope.

[10] = tested on: Somatolactotroph (GH3) tumor cells; test: Somato-lactotroph tumor growth in athymic nude mice; type: in vivo, mouse; settings: oral 150 mg/kg/day, 4 weeks
[11] = tested on: gonadotroph tumor cells (LβT2); test: Gonadotroph tumor growth in nude mice; type: in vivo, mouse; settings: oral 150 mg/kg/day, 6 weeks
Source text: FIG. 14A is a representative picture of a rosiglitazone-treated mouse (“Ros”) and an untreated (control) mouse 4 weeks following commencement of administration of treatment. The untreated (control) mouse in the picture developed numerous large visible tumors.
In separate parallel similarly conducted studies, gonadotroph tumor cells (LβT2) were innoculated in mice as above.

[12] = tested on: Mouse gonadotroph pituitary tumor cells (αT3); test: Growth of established gonadotroph tumors in athymic nude mice; type: in vivo; settings: oral 150 mg/kg/day for 6 weeks, started 3 weeks post-inoculation; vehicle 3.2±0.76, p=0.005
Source text: As patients invariably present with already established and actively growing pituitary tumors, the effects of TZD treatment were therefore tested on growth of already established pituitary gonadotroph tumors in vivo. Mouse gonadotroph pituitary tumor cells (αT3) were inoculated subcutaneously in athymic nude mice, and tumors allowed to develop.

[13] = tested on: POMC promoter (-706/+64 rat POMC-luc) in AtT20 cells; test: POMC promoter luciferase reporter transfection; type: cell-based, mouse; settings: CRH 50 nM, luciferase over vehicle control
Source text: Transfection with POMC promoter.

Compound: Cc1c(C)c2c(c(C)c1O)CCC(C)(COc1ccc(CC3SC(=O)NC3=O)cc1)O2 (racemic) [Troglitazone, (±)-5-[4[(6-Hydroxy-2,5,7,8-tetramethylchroman-2-yl)methoxy]-benzyl]-2,4-thiazolidinedione]
- expression of pro-apoptotic protein p53 [1]: increased expression
- reason for market withdrawal (human patients; withdrawn in March, 2000): reports of liver toxicity in humans

- serum corticosterone, treated vs. untreated normal mice ([7]; unstressed and stressed (data not shown)): similar
- Plasma ACTH, baseline (unstressed), Mean±SEM ([7]; controls 434±40, p=ns): 474 ± 33 pg/mL
- Plasma ACTH, stress-induced (15 minutes restraint), Mean±SEM ([7]; controls 5278±312, p=ns): 4764 ± 292 pg/mL
Compound: CN(CCOc1ccc(CC2SC(=O)NC2=O)cc1)c1ccccn1 (racemic) [rosiglitazone, (±)-5-[[4-[2-(methyl-2-pyridinylamino)ethoxy]phenyl]methyl]-2,4-thiazolidinedione,(Z)-2-butenedioate]
- S-phase cells ([2]; control 18±0.05%, p=0.001): 12±0.5%
- cells in G1 (G0-G1 cell-cycle arrest) ([2]; control 75±4%, p=0.009): 85±2%
- cells in S-phase ([3]; control 31±0.5%, p=0.03): 16±2.5%
- cells in G1 (G0-G1 cell-cycle arrest) ([3]; control 67±0.5%, p=0.01): 75±0.5%
- cells in S-phase ([4]; control 18±0.05%, p=0.001): 12±0.5%
- cells in G1 (G0-G1 cell-cycle arrest) ([4]; up to 48 h serum-free or up to 96 h serum-repleted, control 75±4%, p=0.009): 85±2%
- % apoptosis (TUNEL) (AtT20 cells; 10^−5 M, control 33±3%, p<0.001): 69±7%
- % apoptosis (TUNEL) (AtT20 cells; 10^−6 M, control 33±3%, p<0.001): 47±4%
- increase in apoptosis (TUNEL) (AtT20 cells; 48 hours after treatment, vs. control): 2 fold
- % apoptosis (TUNEL) (AtT20 cells; CRH 50 nM & ros 10^−5 M (pre-treatment before CRH), p<0.05 vs CRH): 19±3%
- tumor diameter ([5]; control 1-2 cm): 0.1 cm
- serum corticosterone, mean±SEM ([5]; vehicle 785±374, p<0.05): 113 ± 17 ng/mL
- plasma ACTH, mean±SEM ([5]; vehicle 2085±847, p<0.05): 98 ± 33 pg/mL
- reduction in plasma ACTH ([6]; vs. controls): 75%
- reduction in serum corticosterone levels ([6]; vs. controls): 96%
- plasma ACTH, mean±SEM ([6]; controls 3841±308, p=0.002): 978 ± 452 pg/mL
- serum corticosterone, mean±SEM ([6]; controls 4304±2593, p<0.05): 181 ± 56 ng/mL
- decrease of 24 hour urinary free cortisol excretion (UFC) ([8]; after 2 weeks): 33%
- decrease of 24 hour urinary free cortisol excretion (UFC) ([8]; after 3 weeks): 55%
- % apoptosis ([9]; 10^−5 M): 69±7%
- % apoptosis ([9]; 10^−6 M): 47±4%
- tumor diameter [10]: 1-2 cm
- tumor weight ([10]; control 0.13±0.01, p=0.008): 0.04 ± 0.01 g
- serum GH ([10]; control 545±153, p=0.03): 114 ± 66 ng/mL
- serum PRL ([10]; control 656±289, p=ns): 95 ± 58 ng/mL
- tumor weight ([11]; control 3.44±0.42, P<0.002): 0.81 ± 0.19 g
- plasma LH ([11]; control 69±19, p=0.004): 6.8 ± 1.0 ng/mL
- final tumor weight of established tumors [12]: 0.76 ± 0.29 g
- tolerability in humans (human patients; About 20 milligrams per day, sustained periods of time): without adverse effects
- clinical surveillance, safety (human patients; more than 4500 patients with type 2 diabetes): safe, effective

Compound: CRH: Corticotrophin releasing hormone, a potent corticotroph proliferative factor
- % apoptosis (TUNEL) (AtT20 cells; CRH 50 nM alone, 24 hours): 4±0.5%
- increase in POMC-transcription [13]: 1.6 fold
